According to the supplement of paper PMC10307832:

Tests used:
Assay in all cases: relative viability (nuclei count vs DMSO), 5 days (fraction); higher = more cells survive
[1] = compound: CC[C@H](C)N1C=C(C2=C(C=C(C=C21)C3=CN=C(C=C3)N4CCNCC4)C(=O)NCC5=C(C=C(NC5=O)C)C)C [GSK126] + CS(=O)(=O)N1CCN(Cc2cc3nc(-c4cccc5[nH]ncc45)nc(N4CCOCC4)c3s2)CC1 [Pictilisib] (partner 1 µM)
Summary of the method: (§1)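 A single step with final 0.05% Triton X-100, 1% formaldehyde and 1 ug/ml Hoechst fixed the cells and stained nuclei 5 days after treatment. Lung cancer cell lines in 1536-well plates had been treated by pin tool the day after seeding with one drug alone or a fixed anchor-drug dose plus five library-drug doses (not always all listed) in √10 steps, and nuclei were counted on 4× images. Relative viability is the ratio of nuclei in treated wells to nuclei in vehicle wells, taken as the median of duplicate plates.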

[2] = compound: NS(=O)(=O)OC[C@@H]1C[C@@H](n2ccc3c(N[C@H]4CCc5ccccc54)ncnc32)C[C@@H]1O [MLN4924] + CC(=O)Nc1cccc(-n2c(=O)n(C3CC3)c(=O)c3c(Nc4ccc(I)cc4F)n(C)c(=O)c(C)c32)c1 [Trametinib] (partner 0.02 µM)
Summary of the method: as §1

[3] = compound: C1CC(C1)(C(=O)O)C(=O)O.[NH2-].[NH2-].[Pt+2] [Carboplatin] + O=C(c1cc(Cc2n[nH]c(=O)c3ccccc23)ccc1F)N1CCN(C(=O)C2CC2)CC1 [Olaparib] (partner 8 µM)
Summary of the method: as §1

[4] = compound: CC[C@H](C)N1C=C(C2=C(C=C(C=C21)C3=CN=C(C=C3)N4CCNCC4)C(=O)NCC5=C(C=C(NC5=O)C)C)C [GSK126] + Nc1nc2[nH]cc(CCc3ccc(C(=O)N[C@@H](CCC(=O)O)C(=O)O)cc3)c2c(=O)[nH]1 [Pemetrexed] (partner 0.2 µM)
Summary of the method: as §1

| Cell Line | relative viability ([1]; first compound 0.08 µM) | relative viability ([1]; first compound 0.253 µM) | relative viability ([1]; first compound 0.8 µM) | relative viability ([1]; first compound 2.53 µM) | relative viability ([1]; first compound 8 µM) | relative viability ([2]; first compound 0.04 µM) | relative viability ([2]; first compound 0.1265 µM) | relative viability ([2]; first compound 0.4 µM) | relative viability ([2]; first compound 1.265 µM) | relative viability ([2]; first compound 4 µM) | relative viability ([3]; first compound 0.08 µM) | relative viability ([3]; first compound 0.253 µM) | relative viability ([3]; first compound 0.8 µM) | relative viability ([3]; first compound 2.53 µM) | relative viability ([3]; first compound 8 µM) | relative viability ([4]; first compound 0.08 µM) | relative viability ([4]; first compound 0.253 µM) | relative viability ([4]; first compound 0.8 µM) | relative viability ([4]; first compound 2.53 µM) | relative viability ([4]; first compound 8 µM) |
| --- | --- | --- | --- | --- | --- | --- | --- | --- | --- | --- | --- | --- | --- | --- | --- | --- | --- | --- | --- | --- |
| COR-L23 | 0.946 | 0.735 | 0.817 | 0.839 | 0.768 | 0.633 | 0.683 | 0.416 | 0.162 | 0.122 | 0.329 | 0.3 | 0.301 | 0.246 | 0.157 | 0.229 | 0.194 | 0.188 | 0.185 | 0.183 |
| NCI-H647 | 0.441 | 0.351 | 0.404 | 0.528 | 0.337 | 0.576 | 0.538 | 0.25 | 0.0717 | 0.072 | 0.631 | 0.543 | 0.53 | 0.431 | 0.222 | 0.236 | 0.197 | 0.188 | 0.163 | 0.19 |
| LXF-289 | 0.835 | 0.791 | 0.732 | 0.769 | 0.8 | 0.568 | 0.419 | 0.464 | 0.216 | 0.131 | 1.05 | 1.1 | 1.08 | 1.05 | 0.996 | 0.894 | 0.945 | 0.933 | 0.908 | 0.884 |
| NCI-H1703 | 0.247 | 0.263 | 0.235 | 0.262 | 0.231 | – | – | – | – | – | 0.646 | 0.329 | 0.453 | 0.608 | 0.325 | – | – | – | – | – |
| NCI-H1793 | 0.224 | 0.37 | 0.36 | 0.502 | 0.343 | 0.417 | 0.426 | 0.508 | 0.376 | 0.294 | 0.802 | 0.909 | 0.82 | 0.675 | 1.04 | 0.981 | 0.825 | 0.876 | 0.916 | 0.932 |
| NCI-H522 | – | – | – | – | – | 0.638 | 0.696 | 0.691 | 0.314 | 0.386 | 0.586 | 0.663 | 0.618 | 0.679 | 0.607 | 1.02 | 0.772 | 0.95 | 0.865 | 1.06 |
| LOU-NH91 | 0.519 | 0.501 | 0.557 | 0.524 | 0.545 | 0.775 | 0.853 | 0.731 | 0.575 | 0.525 | 0.955 | 0.973 | 0.873 | 0.831 | 0.844 | 0.399 | 0.35 | 0.376 | 0.362 | 0.423 |
| NCI-H1355 | 0.476 | 0.531 | 0.447 | 0.499 | 0.447 | 0.474 | 0.477 | 0.444 | 0.243 | 0.232 | 0.808 | 0.734 | 0.677 | 0.694 | 0.595 | 1.15 | 1.12 | 0.996 | 1.03 | 1.06 |
| NCI-H1648 | – | – | – | – | – | 0.481 | 0.353 | 0.332 | 0.314 | 0.306 | 1.39 | 1.29 | 1.21 | 0.765 | 0.897 | 0.693 | 0.766 | 0.884 | 0.945 | 0.76 |
| Calu-6 | 1.03 | 0.987 | 0.913 | 1.07 | 0.967 | – | – | – | – | – | 0.582 | 0.552 | 0.541 | 0.475 | 0.298 | – | – | – | – | – |
| EBC-1 | 0.42 | 0.321 | 0.41 | 0.321 | 0.25 | – | – | – | – | – | 0.775 | 0.694 | 0.725 | 0.624 | 0.567 | – | – | – | – | – |
| IA-LM | 0.359 | 0.286 | 0.301 | 0.443 | 0.36 | – | – | – | – | – | 0.836 | 0.74 | 0.715 | 0.905 | 0.57 | – | – | – | – | – |
| NCI-H1563 | 0.616 | 0.715 | 0.695 | 0.648 | 0.551 | – | – | – | – | – | – | – | – | – | – | 0.848 | 0.808 | 0.772 | 0.579 | 0.754 |
| NCI-H1299 | 0.877 | 0.693 | 0.74 | 1.02 | 0.576 | – | – | – | – | – | 0.967 | 0.969 | 0.96 | 0.947 | 0.826 | – | – | – | – | – |
| NCI-H2342 | – | – | – | – | – | 0.834 | 0.757 | 0.759 | 0.727 | 0.54 | 0.447 | 0.497 | 0.394 | 0.357 | 0.372 | 0.851 | 0.762 | 0.744 | 0.879 | 0.881 |
| NCI-H727 | 0.269 | 0.367 | 0.317 | 0.367 | 0.43 | 0.442 | 0.454 | 0.403 | 0.358 | 0.365 | 0.75 | 0.586 | 0.862 | 0.646 | 0.667 | – | – | – | – | – |
| ABC-1 | 0.972 | 1.03 | 0.732 | 0.858 | 0.687 | – | – | – | – | – | 1.09 | 0.759 | 0.781 | 0.654 | 0.553 | – | – | – | – | – |
| SW 900 | – | – | – | – | – | – | 0.764 | 0.449 | 0.291 | 0.218 | 0.814 | 0.968 | 0.874 | 0.818 | 0.823 | 0.498 | 0.45 | 0.463 | 0.46 | 0.493 |
| A549 | 0.506 | 0.479 | 0.485 | 0.46 | 0.53 | – | – | – | – | – | 0.332 | 0.388 | 0.314 | 0.329 | 0.174 | – | – | – | – | – |
